Test results reported in patent publication US6608032B1, “Medicinal compositions” (Takara Shuzo Co., Ltd., priority 1999, dated 2003).

What was measured:
[1] = tested on: α-glucosidase; assay: α-glucosidase inhibition with p-nitrophenyl-α-D-glucopyranoside; format: biochemical, S. cerevisiae
Method: (1) An α-glucosidase activity was measured by allowing α-glucosidase to act on p-nitrophenyl-α-D-glucopyranoside (a chromogenic substrate) and calorimetrically quantifying 4-nitrophenol released by hydrolysis.
10 μl of α-glucosidase solution [40 mU/ml, derived from S. cerevisiae, Sigma, dissolved in 10 mM phosphate buffer (pH 7.2 at 37° C.)] and 10 μl of a solution containing a test sample dissolved in 10 mM phosphate buffer (pH 7.2 at 37° C.) were mixed. 80 μl of a 1.5 mg/ml substrate solution [Sigma, dissolved in 10 mM phosphate buffer (pH 7.2 at 37° C.)] was added thereto to initiate the reaction. After reacting at 37° C. for 40 minutes, the absorbance at 410 nm was measured using Shimadzu uv2200. The remaining activity therein was calculated defining the activity observed without the addition of test sample as 100%.
Agarobiose, agarotetraose, agarohexaose and agarooctaose used as test samples were those prepared in Referential Example 1. Commercially available products of anhydrogalactose (Funakoshi), neoagarobiose (Sigma), neoagarotetraose (Funakoshi) and neoagarohexaose (Funakoshi) were used.

[2] = tested on: RAW264.7 cells; assay: Prostaglandin E2 generation by crude enzyme fraction of RAW264.7 cells pre-treated with sample and LPS; format: cell-based; conditions: cells treated with 200 μl of 10 mM sample per 20 ml, 5 hours before LPS
Method: (1) RAW264.7 cells (ATCC TIB 71) were suspended in Dulbecco's modified Eagle's medium (Bio Whittaker, 12-604F) containing 10% fetal calf serum (Gibco) at a concentration of 1×10^6 cells/ml. 20 ml of the suspension was added to a 10-cm Petri dish and the dish was incubated at 37° C. overnight in the presence of 5% CO2. 200 μl of a solution containing agarohexaose or DGE (obtained in Example 15-(2) below) at a concentration of 10 mM in water was added to the dish. The dish was incubated for 5 hours. 200 μl of a solution containing lipopolysaccharide (LPS, Sigma, L-2012) at a concentration of 100 μg/ml in water was added thereto. The dish was incubated for additional 12 hours. As a control, 200 μL of water was added in place of the sample. The cells were recovered by detaching the cells from the plate using a scraper and suspended in 0.1 M tris buffer (pH 8.0) containing 1 μg/ml pepstatin A (Sigma, P5318), 1 μg/ml leupeptin (Sigma, L2884) and 1 mM phenylmethylsulfonyl fluoride (Nacalai Tesque, 273-27). The cell membrane was destroyed by sonication. A supernatant collected by centrifugation was used as a crude enzyme fraction. The content of protein in the crude enzyme fraction was determined using Micro BCA Protein Assay Reagent (a product of Pierce sold by Takara Shuzo, P7411). 2.5 μL of 200 mM aqueous solution of glutathione (Nacalai Tesque, 170-50), 2.5 μL of a suspension containing L-adrenaline (Nacalai Tesque, 010-04) at a concentration of 200 mM in water, and 1 μL of 3 mM solution of arachidonic acid (Cayman, 90010.1) or 1 μL of 100 μg/mL solution of prostaglandin H2 (Cayman, 17020) were added to 100 μL of the sample from the crude enzyme fraction prepared as described above. The mixture was reacted at 37° C. for 30 minutes. The reaction was stopped by heating at 100° C. for 2 minutes. The content of prostaglandin E2 in the reaction mixture was measured using Prostaglandin E2 ELISA Kit (Neogen, 404110).

[3] = tested on: enzymes involved in the synthesis of prostaglandin E2 from arachidonic acid; assay: Prostaglandin E2 generation from arachidonic acid, sample added directly to crude enzyme fraction; format: biochemical; conditions: 1 μL of 100 mM agarobiose, 100 mM agarohexaose, 10 mM DGE or 13 mM nimesulide added to 100 μL crude enzyme fraction; FIG. 15
Method: 2.5 μL of 200 mM aqueous solution of glutathione, 2.5 μL of a suspension containing L-adrenaline at a concentration of 200 mM in water, and 1 μL of 100 mM aqueous solution of agarobiose, 100 mM aqueous solution of agarohexaose or 10 mM aqueous solution of DGE as a sample were added to 100 μL of the control sample from the crude enzyme fraction prepared in Example 15. 1 μL of water was added as a negative control. 1 μL of 13 mM nimesulide (Cayman, 70640) solution was added as a positive control. 1 μL of 3 mM arachidonic acid solution was then added to start the reaction. The mixture was reacted at 37° C. for 5 minutes. The reaction was stopped by heating at 100° C. for 2 minutes. The content of prostaglandin E2 in the reaction mixture was measured using Prostaglandin E2 ELISA Kit.

[4] = tested on: heme oxygenase 1 protein; assay: Heme oxygenase 1 induction in RAW264.7 cells (Western blot); format: cell-based; parameters: key: − represents no band observed; increase in the intensity of the band is represented as follows:+−<+<++; increase in the intensity of the band is represented as follows:+−<+<++; increase in the intensity of the band is represented as follows:+−<+<++; conditions: positive control, 5 μl of 3 mM solution in dimethyl sulfoxide per 5 ml well; 15 hours
Method: RAW264.7 cells (ATCC TIB 71) were suspended in Dulbecco's modified Eagle's medium (Bio Whittaker, 12-604F) containing 10% fetal calf serum (Gibco) at a concentration of 3×10^5 cells/ml. 5 ml of the suspension was added to each well of a 6-well microtiter plate and the plate was incubated at 37° C. overnight in the presence of 5% CO2. 50 μl of a solution containing agarobiose or agarohexaose in Referential Example 1 at a concentration of 20 mM, 10 mM or 5 mM in water was added to the well. The plate was incubated for 15 hours. A positive control for heme oxygenase 1 induction in which 5 μl of 3 mM solution of 15-deoxy-Δ12,14 prostaglandin J2 (Cayman Chemical, 18570) in dimethyl sulfoxide was added, and a negative control in which water was added were provided. The cells were recovered by detaching the cells from the plate using a scraper and suspended in 0.1 M tris-HCl buffer (pH 7.5) containing 0.05 mM pepstatin A (Sigma, P5318), 0.2 mM leupeptin (Sigma, L2884), 1 mM phenylmethylsulfonyl fluoride (Nacalai Tesque, 273-27), 10 mm ethylenediaminetetraacetic acid disodium salt and 0.1% Triton X-100. A supernatant obtained by centrifuging the suspension after freezing and thawing was used as a protein fraction. The content of protein in the protein fraction was determined using Micro BCA Protein Assay Reagent (a product of Pierce sold by Takara Shuzo, P7411). A sample from the protein fraction prepared as described above was mixed with an equal volume of 0.125 M tris-hydrochloride buffer (pH 6.8) containing 4% sodium lauryl sulfate (SDS), 2% 2-mercaptoethanol, 0.001% Bromophenol Blue and 20% glycerol. After treatment at 100° C. for 5 minutes, a portion corresponding to 10 μg of protein was loaded on 12.5% SDS-polyacrylamide gel and electrophoresed at a constant current of 20 mA. After electrophoresis, the gel was transferred to a PVDF membrane (Millipore, IPVH000 10) at a constant voltage of 15 V for 25 minutes using a blotting buffer (containing 48 mM tris, 39 mM glycine, 20% methanol and 0.0375% SDS) and Trans-Blot SD Cell Semi-Dry blotting apparatus (Bio-Rad) according to the attached protocol. After transferring, the PVDF membrane was blocked in a solution of Block Ace (Dainippon Pharmaceutical, UK-B25) at 4° C. overnight. After blocking, the membrane washed three times in phosphate buffered saline containing 0.1% Tween 20 for 15 minutes with gentle shaking. The membrane was reacted in phosphate buffered saline containing 10% Block Ace, 0.1% Tween 20 and 200 ng/ml of anti-heme oxygenase 1 antibody (N-19; Santa Cruz, sc-7696) at room temperature for 1 hour with gentle shaking, and then washed three times in phosphate buffered saline containing 0.1% Tween 20 for 15 minutes with gentle shaking. The membrane was reacted in phosphate buffered saline containing 10% Block Ace, 0.1% Tween 20 and 0.1% peroxidase-labeled rabbit anti-goat IgG (H+L) antibody (Zymed, 61-1620) at room temperature for 1 hour with gentle shaking, and then washed five times in phosphate buffered saline containing 0.1% Tween 20 for 15 minutes with gentle shaking. The PVDF membrane was stained using Western Blot Chemiluminescence Reagent Plus (a product of NEN Life Science Products sold by Daiichi Pure Chemicals, NEL103) according to the attached protocol and exposed to an X-ray film (Kodak, CAT165 1454). After exposure, the film was developed using FPM800 (Fuji Film).
The intensity of the band depended on the concentration of agarobiose or agarohexaose. In the table, the intensity of the band for heme oxygenase 1 protein is expressed by the mark+. Specifically, − represents no band observed, and increase in the intensity of the band is represented as follows:+−<+<++.

For `OC[C@H]1O[C@@H](O)[C@H](O)[C@@H](O[C@@H]2O[C@H]3CO[C@@H]([C@@H]2O)[C@@H]3O[C@@H]2O[C@H](CO)[C@H](O)[C@H](O[C@@H]3O[C@H]4CO[C@@H]([C@@H]3O)[C@@H]4O[C@@H]3O[C@H](CO)[C@H](O)[C@H](O[C@@H]4O[C@H]5CO[C@@H]([C@@H]4O)[C@@H]5O)[C@H]3O)[C@H]2O)[C@H]1O` [Neoagarohexaose, neoagarohexaose, reference compound], the “Activity of inhibiting α-glucosidase (% remaining activity)” value ([1]; 5 μM) was 100%, the “Activity of inhibiting α-glucosidase (% remaining activity)” value ([1]; 50 μM) was 100% and the “Activity of inhibiting α-glucosidase (% remaining activity)” value ([1]; 500 μM) was 93%. The “Activity of inhibiting α-glucosidase (% remaining activity)” value ([1]; 1000 μM) was 71% and the “Activity of inhibiting α-glucosidase (% remaining activity)” value ([1]; 5000 μM) was 8%.
`OC[C@H]1OC(O)[C@H](O)[C@@H](O[C@@H]2O[C@H]3CO[C@@H]([C@@H]2O)[C@@H]3O)[C@H]1O` (stereo partly drawn) [Neoagarobiose, neoagarobiose, reference compound] was tested, and the “Activity of inhibiting α-glucosidase (% remaining activity)” value ([1]; 5 μM) was 100%, the “Activity of inhibiting α-glucosidase (% remaining activity)” value ([1]; 50 μM) was 100% and the “Activity of inhibiting α-glucosidase (% remaining activity)” value ([1]; 500 μM) was 100%. For the same compound, the “Activity of inhibiting α-glucosidase (% remaining activity)” value ([1]; 1000 μM) was 100% and the “Activity of inhibiting α-glucosidase (% remaining activity)” value ([1]; 5000 μM) was 100%.
In the case of `O=C1C=CC(CO)OC1O` [DGE, L-glycero-1,5-epoxy-1αβ, 6-dihydroxy-cis-hex-3-en-2-one], the “production of prostaglandin E2, arachidonic acid added” value ([2]; FIG. 13) was “suppressed as compared with the control”, the “production of prostaglandin E2, prostaglandin H2 added” value ([2]; FIG. 14) was “suppressed as compared with the control” and the “production of prostaglandin E2 from arachidonic acid” value [3] was “not suppressed”.
With agarooctaose the “Activity of inhibiting α-glucosidase (% remaining activity)” value ([1]; 5 μM) was 91%, the “Activity of inhibiting α-glucosidase (% remaining activity)” value ([1]; 50 μM) was 90% and the “Activity of inhibiting α-glucosidase (% remaining activity)” value ([1]; 500 μM) was 32%. For the same compound, the “Activity of inhibiting α-glucosidase (% remaining activity)” value ([1]; 1000 μM) was 26% and the “Activity of inhibiting α-glucosidase (% remaining activity)” value ([1]; 5000 μM) was 11%.
With `CCCCC/C=C/C=C1/C(=O)C=C[C@@H]1C/C=C\CCCC(=O)O` [15-deoxy-Δ12,14 prostaglandin J2, reference compound] the “Intensity of band for heme oxygenase 1 protein” value [4] was “+”.
For `CS(=O)(=O)Nc1ccc([N+](=O)[O-])cc1Oc1ccccc1` [nimesulide, reference compound], the “production of prostaglandin E2 from arachidonic acid” value [3] was “suppressed”.
In the case of `OC1O[C@@H]2CO[C@@H]([C@H]2O)[C@H]1O` (stereo partly drawn) [Anhydrogalactose, 3,6-anhydrogalactopyranose], the “Activity of inhibiting α-glucosidase (% remaining activity)” value ([1]; 5 μM) was 100%, the “Activity of inhibiting α-glucosidase (% remaining activity)” value ([1]; 50 μM) was 100% and the “Activity of inhibiting α-glucosidase (% remaining activity)” value ([1]; 500 μM) was 100%. The “Activity of inhibiting α-glucosidase (% remaining activity)” value ([1]; 1000 μM) was 100% and the “Activity of inhibiting α-glucosidase (% remaining activity)” value ([1]; 5000 μM) was 100%.
For `OC[C@H]1O[C@@H](O)[C@H](O)[C@@H](O[C@@H]2O[C@H]3CO[C@@H]([C@@H]2O)[C@@H]3O[C@@H]2O[C@H](CO)[C@H](O)[C@H](O[C@@H]3O[C@H]4CO[C@@H]([C@@H]3O)[C@@H]4O)[C@H]2O)[C@H]1O` [Neoagarotetraose, neoagarotetraose, reference compound], the “Activity of inhibiting α-glucosidase (% remaining activity)” value ([1]; 5 μM) was 100%, the “Activity of inhibiting α-glucosidase (% remaining activity)” value ([1]; 50 μM) was 93% and the “Activity of inhibiting α-glucosidase (% remaining activity)” value ([1]; 500 μM) was 89%. For the same compound, the “Activity of inhibiting α-glucosidase (% remaining activity)” value ([1]; 1000 μM) was 76% and the “Activity of inhibiting α-glucosidase (% remaining activity)” value ([1]; 5000 μM) was 42%.
